Reference: patent US9718828B2 (MERCK SHARP & DOHME CORP., priority 2011, dated 2017)
Where a name gives a salt, the structure may show the parent alone.

Biological target: hBTK (full-length BTK, 6HIS-tag cleaved) (Homo sapiens (Human), UniProt Q06187)
Experiment: BTK enzymatic activity, LANCE TR-FRET assay (Assay Method C)
Format: biochemical
Conditions: LANCE TR-FRET, 50 pM hBTK, 25 μM ATP; class 100-1000 is given as ≧100 nM-<1 μM; read-out: IC50 Btk activity values - Assay Method C

hBTK (full-length BTK, 6HIS-tag cleaved), sequence (Q06187 whole entry): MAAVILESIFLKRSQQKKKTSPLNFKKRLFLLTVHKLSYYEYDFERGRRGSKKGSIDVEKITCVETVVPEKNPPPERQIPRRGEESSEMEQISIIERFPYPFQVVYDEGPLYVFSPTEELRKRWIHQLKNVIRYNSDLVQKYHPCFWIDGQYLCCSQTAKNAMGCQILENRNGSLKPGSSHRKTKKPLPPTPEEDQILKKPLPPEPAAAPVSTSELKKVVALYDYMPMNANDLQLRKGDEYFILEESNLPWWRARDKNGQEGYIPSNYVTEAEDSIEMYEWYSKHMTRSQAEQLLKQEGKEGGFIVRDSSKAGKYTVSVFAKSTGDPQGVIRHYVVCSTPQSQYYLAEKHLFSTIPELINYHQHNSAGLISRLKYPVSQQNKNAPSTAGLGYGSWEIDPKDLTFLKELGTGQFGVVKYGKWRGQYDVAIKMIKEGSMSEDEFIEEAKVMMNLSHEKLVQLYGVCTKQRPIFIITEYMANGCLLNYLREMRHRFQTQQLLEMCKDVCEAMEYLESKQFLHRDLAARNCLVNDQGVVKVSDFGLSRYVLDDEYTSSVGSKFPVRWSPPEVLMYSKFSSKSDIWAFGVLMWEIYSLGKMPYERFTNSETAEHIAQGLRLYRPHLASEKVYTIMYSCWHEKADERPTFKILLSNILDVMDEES

Structure (SMILES) | IC50 [nM]
CN1C[C@@H](c2nc(-c3ccc(C(=O)Nc4cc(C(F)(F)F)ccn4)cc3)c3c(N)nccn23)CC[C@H]1C(F)(F)F [Example 414, 4-{8-amino-3-[(3S,6S)-1-methyl-6-(trifluoromethyl)piperidin-3-yl]imidazo[1,5-a]pyrazin-1-yl}-N-[4-(trifluoromethyl)pyridin-2-yl]benzamide] | < 10
C[C@H](O)C(=O)N1CCO[C@@H](c2nc(-c3ccc(C(=O)Nc4cc(C(F)(F)F)ccn4)cc3)c3c(N)ncc(Cl)n23)C1 [Example 523, 4-(8-amino-5-chloro-3-{(2R)-4-[(2S)-2-hydroxypropanoyl]morpholin-2-yl}imidazo[1,5-a]pyrazin-1-yl)-N-[4-(trifluoromethyl)pyridin-2-yl]benzamide] | < 10
Cc1ccnc(NC(=O)c2ccc(-c3nc([C@@H]4CCCN(C(=O)C5(C)COC5)C4)n4c(Cl)cnc(N)c34)cc2)c1 [Example 446, 4-(8-amino-5-chloro-3-{(3R)-1-[(3-methyloxetan-3-yl)carbonyl]piperidin-3-yl}imidazo[1,5-a]pyrazin-1-yl)-N-(4-methylpyridin-2-yl)benzamide] | < 10
CC1(C(=O)N2CCC[C@@H](n3nc(-c4ccc(C(=O)Nc5cc(C(F)(F)F)ccn5)cc4)c4c(N)ncc(Cl)c43)C2)COC1 [Example 382, 4-(4-amino-7-chloro-1-{(3R)-1-[(3-methyloxetan-3-yl)carbonyl]piperidin-3-yl}-1H-pyrazolo[4,3-c]pyridin-3-yl)-N-[4-(trifluoromethyl)pyridin-2-yl]benzamide] | < 10
CC1(C(=O)N2CCC[C@@H](c3nc(-c4ccc(C(=O)Nc5cc(C(F)(F)F)ccn5)cc4)c4c(N)ncc(C#N)n34)C2)COC1 [Example 373, (R)-4-(8-amino-5-cyano-3-(1-(3-methyloxetane-3-carbonyl)piperidin-3-yl)imidazo[1,5-a]pyrazin-1-yl)-N-(4-(trifluoromethyl)pyridin-2-yl)benzamide] | < 10
CC1(C(=O)N2CCC[C@@H](c3nc(-c4ccc(C(=O)Nc5cc(C(F)(F)F)ccn5)cc4)c4c(N)ncc(C5(O)COC5)n34)C2)COC1 [Example 469, 4-[8-amino-5-(3-hydroxyoxetan-3-yl)-3-{(3R)-1-[(3-methyloxetan-3-yl)carbonyl]piperidin-3-yl}imidazo[1,5-a]pyrazin-1-yl]-N-[4-(trifluoromethyl)pyridin-2-yl]benzamide] | 10 to 100
Nc1nccn2c([C@@H]3CN[C@H](CO)CO3)nc(-c3ccc(C(=O)Nc4cc(C(F)(F)F)ccn4)cc3)c12 [Example 547, 4-{8-amino-3-[(2S,5R)-5-(hydroxymethyl)morpholin-2-yl]imidazo[1,5-a]pyrazin-1-yl}-N-[4-(trifluoromethyl)pyridin-2-yl]benzamide, TFA salt] | 10 to 100
Nc1nccn2c(C3CCC(C(F)(F)F)N(C(=O)C4CC4)C3)nc(-c3ccc(C(=O)Nc4cc(C(F)(F)F)ccn4)cc3F)c12 (stereo not shown) [Example 399, 4-{8-amino-3-[1-(cyclopropylcarbonyl)-6-(trifluoromethyl)piperidin-3-yl]imidazo[1,5-a]pyrazin-1-yl}-3-fluoro-N-[4-(trifluoromethyl)pyridin-2-yl]benzamide] | < 10
N#CC1(C(=O)N2CCC[C@@H](c3nc(-c4ccc(C(=O)Nc5cc(C(F)(F)F)ccn5)cc4)c4c(N)nccn34)C2)CC1 [Example 335, 4-(8-amino-3-{(3R)-1-[(1-cyanocyclopropyl)carbonyl]piperidin-3-yl}imidazo[1,5-a]pyrazin-1-yl)-N-[4-(trifluoromethyl)pyridin-2-yl]benzamide] | < 10
CCN1CCO[C@@H](c2nc(-c3ccc(C(=O)Nc4cc(C(F)(F)F)ccn4)cc3)c3c(N)ncc(Cl)n23)C1 [Example 522, 4-{8-amino-5-chloro-3-[(2R)-4-ethylmorpholin-2-yl]imidazo[1,5-a]pyrazin-1-yl}-N-[4-(trifluoromethyl)pyridin-2-yl]benzamide] | < 10
Nc1ncc(Cl)n2c([C@H]3CNCCO3)nc(-c3ccc(C(=O)Nc4cc(C(F)(F)F)ccn4)cc3)c12 [Example 504, 4-{8-amino-5-chloro-3-[(2R)-morpholin-2-yl]imidazo[1,5-a]pyrazin-1-yl}-N-[4-(trifluoromethyl)pyridin-2-yl]benzamide] | < 10

The remaining lines, values ahead:

IC50 [nM] | Structure (SMILES)
< 10 | CO[C@H](C)c1cnc(N)c2c(-c3ccc(C(=O)Nc4cc(C(F)(F)F)ccn4)cc3)nc([C@@H]3CCCN(C(=O)C4(C)COC4)C3)n12 [Example 467, 4-(8-amino-5-[(1R)-1-methoxyethyl]-3-{(3R)-1-[(3-methyloxetan-3-yl)carbonyl]piperidin-3-yl}imidazo[1,5-a]pyrazin-1-yl)-N-[4-(trifluoromethyl)pyridin-2-yl]benzamide]
< 10 | Cc1cnc(N)c2c(-c3ccc(C(=O)Nc4cc(OC5CC5)ccn4)cc3)nc([C@@H]3CCCN(C(=O)C4CC4)C3)n12 [Example 457, 4-{8-amino-3-[(3R)-1-(cyclopropylcarbonyl)piperidin-3-yl]-5-methylimidazo[1,5-a]pyrazin-1-yl}-N-[4-(cyclopropyloxy)pyridin-2-yl]benzamide]
< 10 | CC(=O)N1C[C@@H](c2nc(-c3ccc(C(=O)Nc4cc(C(F)(F)F)ccn4)cc3)c3c(N)nccn23)CC[C@@H]1C(F)(F)F [Example 427, 4-{3-[(3S,6R)-1-acetyl-6-(trifluoromethyl)piperidin-3-yl]-8-aminoimidazo[1,5-a]pyrazin-1-yl}-N-[4-(trifluoromethyl)pyridin-2-yl]benzamide]
< 10 | Nc1ncnc2c1c(-c1ccc(C(=O)Nc3cc(C(F)(F)F)ccn3)cc1)nn2[C@H]1CC[C@H](C(F)(F)F)NC1 [Example 556, 4-{4-amino-1-[(3S,6R)-6-(trifluoromethyl)piperidin-3-yl]-1H-pyrazolo[3,4-d]pyrimidin-3-yl}-N-[4-(trifluoromethyl)pyridin-2-yl]benzamide, TFA salt]
< 10 | Nc1nccn2c([C@@H]3CCCN(C(=O)[C@@H]4CC(F)(F)CN4)C3)nc(-c3ccc(C(=O)Nc4cc(C(F)(F)F)ccn4)cc3)c12 [Example 337, 4-{8-amino-3-[(3R)-1-(4,4-difluoro-L-prolyl)piperidin-3-yl]imidazo[1,5-a]pyrazin-1-yl}-N-[4-(trifluoromethyl)pyridin-2-yl]benzamide]
< 10 | CS(=O)(=O)CC(=O)N1CCC[C@@H](c2nc(-c3ccc(C(=O)Nc4cc(C(F)(F)F)ccn4)cc3)c3c(N)nccn23)C1 [Example 349, 4-(8-amino-3-{(3R)-1-[(methylsulfonyl)acetyl]piperidin-3-yl}imidazo[1,5-a]pyrazin-1-yl)-N-[4-(trifluoromethyl)pyridin-2-yl]benzamide]
< 10 | Nc1nccn2c([C@H]3CN(CC4CC4)CCO3)nc(-c3ccc(C(=O)Nc4cc(C(F)(F)F)ccn4)cc3)c12 [Example 508, 4-{8-amino-3-[(2R)-4-(cyclopropylmethyl)morpholin-2-yl]imidazo[1,5-a]pyrazin-1-yl}-N-[4-(trifluoromethyl)pyridin-2-yl]benzamide]
< 10 | Cc1cc(NC(=O)c2ccc(-c3nc([C@@H]4CCCN(C(=O)C5(C)COC5)C4)n4ccnc(N)c34)cc2)ncc1F [Example 360, 4-(8-amino-3-{(3R)-1-[(3-methyloxetan-3-yl)carbonyl]piperidin-3-yl}imidazo[1,5-a]pyrazin-1-yl)-N-(5-fluoro-4-methylpyridin-2-yl)benzamide]
